Measurements as given in patent US20240238199A1, “STABLE LIQUID PHARMACEUTICAL COMPOSITIONS HAVING HIGH DRUG LOADINGS OF MEDIUM CHAIN TRIGLYCERIDES AND METHODS RELATED THERETO” (CERECIN INC., priority 2021, published 2024).

Columns and labels:
[1] = Emulsion physical stability (visual / overall assessment); assay type: physicochemical; conditions: at pH7
Description: As described herein, the pharmaceutical compositions of the disclosure may form a stable liquid emulsion at ambient conditions. An emulsion refers to a composition which, when diluted with water or other aqueous medium and gently mixed, yields a stable oil/water emulsion with a mean particle size of less than about 1 μm, but greater than about 100 nm, (i.e., 0.1-1 μm) and which is generally polydisperse. Such an emulsion is stable, meaning there is no visibly detectable phase separation and that there is no visibly detectable crystallization.
Equal mix of Phospholipon 90 G, Kolliphor RH40 and Capmul PG-8 was also very stable. Particle size evolution of Phospholipon 90G, Kolliphor RH40, Capmul PG-8 emulsions prepared via Ultra Turrax emulsification are shown in FIG. 4, and particle size evolution of 10 Phospholipon 90G, Kolliphor RH40, Capmul PG-8 emulsions: prepared via Silverson & High Pressure Homogeniser emulsification are shown in FIG. 5. Visual appearance of Phospholipon 90G, Kolliphor RH40, Capmul PG-8 emulsions under a 1 month stability study are shown in FIG. 6.

[2] = Gamma irradiation: physiochemical testing pre & post treatment; assay type: physicochemical
Description: Gamma irradiation is a commonly accepted method of sterilizing componentry and reducing bio load in natural materials. Exemplary formulations were irradiated at various dosages and then assessed for the impact of irradiation on product performance.

| Compound | effect on emulsion stability [1] | Appearance: Complies/fails ([2]; gamma irradiation 10 kGy) | Assay: Complies/fails ([2]; gamma irradiation 10 kGy) | Related substances: Complies/fails ([2]; gamma irradiation 10 kGy) | Related substances: result after treatment ([2]; gamma irradiation 10 kGy) | Appearance: Complies/fails ([2]; gamma irradiation 15 kGy) | Assay: Complies/fails ([2]; gamma irradiation 15 kGy) | Related substances: Complies/fails ([2]; gamma irradiation 15 kGy) | Related substances: result after treatment ([2]; gamma irradiation 15 kGy) | Appearance: Complies/fails ([2]; gamma irradiation 25 kGy) | Assay: Complies/fails ([2]; gamma irradiation 25 kGy) | Related substances: Complies/fails ([2]; gamma irradiation 25 kGy) | Related substances: result after treatment ([2]; gamma irradiation 25 kGy) |
| --- | --- | --- | --- | --- | --- | --- | --- | --- | --- | --- | --- | --- | --- |
| CCCCCCCC/C=C\CCCCCCCC(=O)[O-].[Na+] [Sodium oleate] | slight destabilizing effect |  |  |  |  |  |  |  |  |  |  |  |  |
| CCCCCCCC(=O)OCC(COC(=O)CCCCCCC)OC(=O)CCCCCCC [Tricaprylin] |  | Complies | Complies | Complies* | profile changes | Complies | Complies | Complies* | profile changes | Complies | Complies | Complies* | profile changes |
